Patent publication US5385842A, “Anthraquinones as inhibitors of sulfide production from sulfate-reducing bacteria” (E. I. Du Pont de Nemours and Company, priority 1993, dated 1995)

Tests used:
[1] = test system: B. aureus, B. subtilis, B. stearothermophilus and S. aureus; conditions: background art; cited from earlier work
D. multispirans = assay: Growth of different sulfate-reducers with 1,8-dihydroxyanthraquinone (Example 5); assay type: cell-based; conditions: 3 ppm, 40 hours; control >1.5
Experimental: (§1) Growth was monitored as optical density at 660 nm for 40 hours.

[2] = test system: D. desulfuricans #ATCC27774; assay: Rate of hydrogen utilization in the presence of different electron acceptors; assay type: cell-based
From the text: The following experiments show the effect of the 1,8-dihydroxy-anthraquinone on the rate of hydrogen utilization by bacteria in the presence of different electron acceptors.

[3] = test system: Escherichia coli strain MC106; assay: Aerobic and anaerobic growth of Escherichia coli; assay type: cell-based; conditions: 5 ppm
Experimental: Another non-sulfate reducing organism, Escherichia coli strain MC106 was grown under aerobic conditions on BTZ-3 with 30 mM sodium succinate as sole carbon and electron source with oxygen as electron acceptor or under anaerobic conditions with hydrogen (80% as electron donor) and carbon dioxide (20%) as gas phase and sodium fumarate (30 mM) as electron acceptor. Both media contained 0.2% yeast extract.
Aerobic growth with succinate refers to growth on succinate as a carbon and electron source and oxygen as an electron acceptor. Anaerobic growth under hydrogen/carbon dioxide refers to growth with hydrogen as an electron donor and fumarate as an electron acceptor.

D. desulfuricans G100A [4] = assay: Effect of dithionite-reduced anthraquinones on growth of D. desulfuricans G100A; assay type: cell-based
Experimental: Three anthraquinones, 1,8-dihydroxy-, 1-chloro-, and 3-chloro-2-carboxy- were prepared as 1 ml of 1000 ppm solutions in acetone for the first two compounds or water for the third. These solutions were then treated with 1 mg of the strong reducing agent, sodium dithionite. 50 ul of each solution (for a final culture concentration of 5 ppm) was used immediately to treat growing cultures of D. desulfuricans G100A in BTZ-3 medium as defined in Example 1. The compounds were added to the 10 ml cultures at 15 h of growth.

D. vulgaris = assay: Growth of different sulfate-reducers with 1,8-dihydroxyanthraquinone (Example 10); assay type: cell-based; conditions: 3 ppm, 40 hours; control .20
Experimental: as §1

D. desulfuricans Norway = assay: Growth of different sulfate-reducers with 1,8-dihydroxyanthraquinone (Example 7); assay type: cell-based; conditions: 3 ppm, 40 hours; control .30
Experimental: as §1

[5] = test system: Desulfovibrio desulfuricans G100A; assay: microbe, parasite or virus in culture; assay type: cell-based; conditions: Desulfovibrio desulfuricans, G100A, read-out: % Inhib. (inhibition of sulfide production)
[6] = test system: sulfate reducing bacteria (crude enrichments from various naturally-occuring environments); assay: Sulfide production by crude enrichments from naturally-occurring environments; assay type: cell-based; conditions: 5 ppm
Experimental: All samples were grown on standard BTZ-3 medium (as defined in Example 1) under hydrogen (80%) carbon dioxide (20%) with 10 mM acetate and 0.1% yeast extract. Mud samples were inoculated into this medium and allowed to grow for 24 h to enrich for sulfate reducing bacteria. A 1 ml aliquot of this enrichment was transferred to fresh medium and the sulfide evolved was measured over a three day period. Sulfide was assayed as described by Siegal, Anal. Biochem. 11: 126-132, 1965, herein incorporated by reference.

D. salexigens = assay: Growth of different sulfate-reducers with 1,8-dihydroxyanthraquinone (Example 8); assay type: cell-based; conditions: 3 ppm, 40 hours; control >1.5
Experimental: as §1

[7] = test system: D. desulfuricans #ATCC 27774; assay: Growth of different sulfate-reducers with 1,8-dihydroxyanthraquinone (Example 9); assay type: cell-based; conditions: 3 ppm, 40 hours; control .45
Experimental: as §1

D. desulfuricans G100A [8] = assay: Growth of different sulfate-reducers with 1,8-dihydroxyanthraquinone (Example 6); assay type: cell-based; conditions: 3 ppm, 40 hours; control >1.5
Experimental: as §1

D. desulfuricans G100A [9] = assay: Growth of D. desulfuricans G100A after addition of inhibitor at 12 h; assay type: cell-based
Experimental: Four 10 ml culture tubes of BTZ-3 medium as defined in Example 1 supplemented with sodium lactate (40 mM) and sodium sulfate (30 mM) and 0.5 ml of reducing agent were inoculated with 100 ul of a fully grown suspension of D. desulfuricans G100A. The culture was allowed to grow and the optical density at 660 nm was monitored until the cells entered into exponential growth (approx. 12-15 h, O.D. 660=0.1-0.2). At this time 100 ul of a 300 ppm solution of 1,8 dihydroxyanthraquinone, 1-chloranthraquinone or 3-chloro-2-anthraquinone carboxylic acid, respectively, was added to one of the tubes. The ethanol:water (80:20) solvent (100 μl ) was added to the fourth tube to serve as an uninhibited control.
#3 ppm inhibitor added at 12 hours

In the case of O=C1c2cccc(O)c2C(=O)c2c(O)cccc21 [1,8-Dihydroxyanthraquinone], the “antibacterial activity (in words)” value [1] is given as “inactive”, the “Optical Density @ 660 nm, treated” value (D. multispirans) is given as “.28” and the Hydrogen ([2]; Fumarate as electron acceptor, 3 ppm, 0 min, control 0) is given as 0 µL. For the same compound, the Hydrogen ([2]; Fumarate as electron acceptor, 3 ppm, 10 min, control 9) was 8 µL, the Hydrogen ([2]; Fumarate as electron acceptor, 3 ppm, 25 min, control 23) was 25 µL and the Hydrogen ([2]; Fumarate as electron acceptor, 3 ppm, 40 min, control 47) was 48 µL. For the same compound, the Hydrogen ([2]; Fumarate as electron acceptor, 3 ppm, 55 min, control 70) was 74 µL, the Hydrogen ([2]; Fumarate as electron acceptor, 3 ppm, 70 min, control 95) was 101 µL and the Hydrogen ([2]; Sulfate as electron acceptor, 3 ppm, 0 min, control 0) was 0 µL. For the same compound, the Hydrogen ([2]; Sulfate as electron acceptor, 3 ppm, 10 min, control 15) was 3 µL, the Hydrogen ([2]; Sulfate as electron acceptor, 3 ppm, 25 min, control 44) was 14 µL and the Hydrogen ([2]; Sulfate as electron acceptor, 3 ppm, 40 min, control 76) was 21 µL. The Hydrogen ([2]; Sulfate as electron acceptor, 3 ppm, 55 min, control 107) was 28 µL, the Hydrogen ([2]; Sulfate as electron acceptor, 3 ppm, 70 min, control 152) was 38 µL and the Hydrogen ([2]; Sulfate as electron acceptor, 3 ppm, 85 min, control 208) was 45 µL. It also gave a Hydrogen ([2]; Sulfate as electron acceptor, 3 ppm, 100 min, control 266) of 56 µL, a Hydrogen ([2]; Sulfate as electron acceptor, 3 ppm, 115 min, control 336) of 74 µL and a Hydrogen ([2]; Sulfite as electron acceptor, 3 ppm, 0 min, control 0) of 0 µL. For the same compound, the Hydrogen ([2]; Sulfite as electron acceptor, 3 ppm, 6 min, control 7) was 7 µL, the Hydrogen ([2]; Sulfite as electron acceptor, 3 ppm, 16 min, control 26) was 25 µL and the Hydrogen ([2]; Sulfite as electron acceptor, 3 ppm, 26 min, control 45) was 43 µL. It also gave a Hydrogen ([2]; Sulfite as electron acceptor, 3 ppm, 59 min, control 139) of 141 µL, a Hydrogen ([2]; Sulfite as electron acceptor, 3 ppm, 71 min, control 179) of 183 µL and a Hydrogen ([2]; Thiosulfate as electron acceptor, +6 ppm, 0 min, control 0) of 0 µL. It also gave a Hydrogen ([2]; Thiosulfate as electron acceptor, +6 ppm, 11 min, control 38) of 33 µL, a Hydrogen ([2]; Thiosulfate as electron acceptor, +6 ppm, 21 min, control 90) of 73 µL and a Hydrogen ([2]; Thiosulfate as electron acceptor, +6 ppm, 31 min, control 144) of 118 µL. For the same compound, the Hydrogen ([2]; Thiosulfate as electron acceptor, +6 ppm, 41 min, control 204) was 176 µL, the “inhibition of aerobic or anaerobic growth (in words)” value [3] was “virtually no inhibition” and the “Optical Density @ 660 nm” value ([3]; aerobic growth with succinate, 0 h, control 0.01) was 0.01. The “Optical Density @ 660 nm” value ([3]; aerobic growth with succinate, 5.5 h, control 0.17) was 0.24, the “Optical Density @ 660 nm” value ([3]; aerobic growth with succinate, 6.5 h, control 0.37) was 0.39 and the “Optical Density @ 660 nm” value ([3]; aerobic growth with succinate, 7.5 h, control 0.38) was 0.40. The “Optical Density @ 660 nm” value ([3]; aerobic growth with succinate, 24 h, control 1.50) was 1.50, the “Optical Density @ 660 nm” value ([3]; anaerobic growth under hydrogen/carbon dioxide, 0 h, control 0.0) was 0.01 and the “Optical Density @ 660 nm” value ([3]; anaerobic growth under hydrogen/carbon dioxide, 3.5 h, control 0.30) was 0.29. The “Optical Density @ 660 nm” value ([3]; anaerobic growth under hydrogen/carbon dioxide, 4.5 h, control 0.45) was 0.62, the “Optical Density @ 660 nm” value ([3]; anaerobic growth under hydrogen/carbon dioxide, 5.5 h, control 0.61) was 0.79 and the “Optical Density @ 660 nm” value ([3]; anaerobic growth under hydrogen/carbon dioxide, 6.0 h, control 0.75) was 0.87. The “Optical Density @ 660 nm” value (D. desulfuricans G100A [4]; 0 h, before addition of 5 ppm dithionite-reduced compound at 15 h, control 0.02) was 0.02, the “Optical Density @ 660 nm” value (D. desulfuricans G100A [4]; 2 h, before addition of 5 ppm dithionite-reduced compound at 15 h, control 0.02) was 0.02 and the “Optical Density @ 660 nm” value (D. desulfuricans G100A [4]; 12 h, before addition of 5 ppm dithionite-reduced compound at 15 h, control 0.08) was 0.10. For the same compound, the “Optical Density @ 660 nm” value (D. desulfuricans G100A [4]; 15 h, time of addition of 5 ppm dithionite-reduced compound, control 0.18) was 0.2, the “Optical Density @ 660 nm” value (D. desulfuricans G100A [4]; 17 h, 5 ppm dithionite-reduced compound added at 15 h, control 0.26) was 0.24 and the “Optical Density @ 660 nm” value (D. desulfuricans G100A [4]; 20 h, 5 ppm dithionite-reduced compound added at 15 h, control 0.37) was 0.23. For the same compound, the “Optical Density @ 660 nm” value (D. desulfuricans G100A [4]; 25 h, 5 ppm dithionite-reduced compound added at 15 h, control 0.50) was 0.22, the “Optical Density @ 660 nm” value (D. desulfuricans G100A [4]; 30 h, 5 ppm dithionite-reduced compound added at 15 h, control 0.98) was 0.23 and the “Optical Density @ 660 nm” value (D. desulfuricans G100A [4]; 45 h, 5 ppm dithionite-reduced compound added at 15 h, control 1.50) was 0.25. The “Optical Density @ 660 nm, treated” value (D. vulgaris) was “.05”, the “Optical Density @ 660 nm, treated” value (D. desulfuricans Norway) was “.09” and the inhibition at 10 ppm [5] was 82.2%. The “inhibition of enrichments (in words)” value [6] was “the majority of enrichments from natural sources were inhibited”, the “sulfide production, treated” value ([6]; SM-Lewes (Lewes saltmarsh), control 6.4) was 4.5 umol sulfide/day and the “sulfide production, treated” value ([6]; VF-A2 (Valley Garden Park, aerobic), control 64.0) was -11.0 umol sulfide/day. The “sulfide production, treated” value ([6]; VF-A (Valley Garden Park, aerobic), control 24.0) was -2.0 umol sulfide/day, the “sulfide production, treated” value ([6]; VF-AN (Valley Garden Park, anaerobic), control 67.0) was 2.8 umol sulfide/day and the “sulfide production, treated” value ([6]; VS-A (Valley Stream State Park, aerobic), control 49.0) was -1.0 umol sulfide/day. For the same compound, the “sulfide production, treated” value ([6]; VS-AN2 (Valley Stream State Park, anaerobic), control 116.0) was 0.0 umol sulfide/day, the “sulfide production, treated” value ([6]; VS-AN (Valley Stream State Park, anaerobic), control 12.0) was -4.0 umol sulfide/day and the “sulfide production, treated” value ([6]; WADS (Wilmington anaerobic digestor), control 106.7) was 71.0 umol sulfide/day. The “sulfide production, treated” value ([6]; WCC-A1 (White Clay Creek Preserve, aerobic), control 411.0) was 67.0 umol sulfide/day, the “sulfide production, treated” value ([6]; WCC-A2 (White Clay Creek Preserve, aerobic), control 388.0) was 49.0 umol sulfide/day and the “sulfide production, treated” value ([6]; WCC-AN1 (White Clay Creek Preserve, anaerobic), control 345.0) was 80.0 umol sulfide/day. The “sulfide production, treated” value ([6]; WCC-AN2 (White Clay Creek Preserve, anaerobic), control 288.0) was 37.0 umol sulfide/day, the “Optical Density @ 660 nm, treated” value (D. salexigens) was “.06” and the “Optical Density @ 660 nm, treated” value [7] was “.08”. The “Optical Density @ 660 nm, treated” value (D. desulfuricans G100A [8]) was “.20”, the “optical density reading at 660 nm” value (D. desulfuricans G100A [9]; 0 h of growth, before addition of 3 ppm inhibitor at 12 h) was “.01” and the “optical density reading at 660 nm” value (D. desulfuricans G100A [9]; 10 h of growth, before addition of 3 ppm inhibitor at 12 h) was “.12”. The “optical density reading at 660 nm” value (D. desulfuricans G100A [9]; 12 h of growth, 3 ppm inhibitor added at 12 h) was “.20”, the “optical density reading at 660 nm” value (D. desulfuricans G100A [9]; 14 h of growth, 3 ppm inhibitor added at 12 h) was “.19” and the “optical density reading at 660 nm” value (D. desulfuricans G100A [9]; 18 h of growth, 3 ppm inhibitor added at 12 h) was “.16”. The “optical density reading at 660 nm” value (D. desulfuricans G100A [9]; 20 h of growth, 3 ppm inhibitor added at 12 h) was “.16”, the “optical density reading at 660 nm” value (D. desulfuricans G100A [9]; 24 h of growth, 3 ppm inhibitor added at 12 h) was “.16” and the “optical density reading at 660 nm” value (D. desulfuricans G100A [9]; 29 h of growth, 3 ppm inhibitor added at 12 h) was “.18”. For the same compound, the “optical density reading at 660 nm” value (D. desulfuricans G100A [9]; 34 h of growth, 3 ppm inhibitor added at 12 h) was “.18”, the “optical density reading at 660 nm” value (D. desulfuricans G100A [9]; 62 h of growth, 3 ppm inhibitor added at 12 h) was “.30” and the “optical density reading at 660 nm” value (D. desulfuricans G100A [9]; 92 h of growth, 3 ppm inhibitor added at 12 h) was “.28”.
